Key:
[1] = molecular target: Serine/threonine-protein kinase mTOR (Homo sapiens) (UniProt P42345); details: Compound concentration 1000.0 nM
[2] = molecular target: Receptor tyrosine-protein kinase erbB-2 (Homo sapiens) (UniProt P04626); details: Compound concentration 1000.0 nM
[3] = molecular target: Dual specificity protein kinase TTK (Homo sapiens) (UniProt P33981); details: Compound concentration 1000.0 nM
[4] = molecular target: Tyrosine-protein kinase Tec (Homo sapiens) (UniProt P42680); details: Compound concentration 1000.0 nM
[5] = molecular target: Serine/threonine-protein kinase ULK2 (Homo sapiens) (UniProt Q8IYT8); details: Compound concentration 1000.0 nM
[6] = system: Proto-oncogene tyrosine-protein kinase receptor Ret (Homo sapiens), P07949 [V804L]; details: Compound concentration 1000.0 nM
[7] = molecular target: Ribosomal protein S6 kinase alpha-4 (Homo sapiens) (UniProt O75676); details: Compound concentration 1000.0 nM
[8] = molecular target: Cyclin-dependent kinase 4 (Homo sapiens) (UniProt P11802); details: Compound concentration 1000.0 nM
Sequence of Cyclin-dependent kinase 4 (Homo sapiens) (P11802 whole entry): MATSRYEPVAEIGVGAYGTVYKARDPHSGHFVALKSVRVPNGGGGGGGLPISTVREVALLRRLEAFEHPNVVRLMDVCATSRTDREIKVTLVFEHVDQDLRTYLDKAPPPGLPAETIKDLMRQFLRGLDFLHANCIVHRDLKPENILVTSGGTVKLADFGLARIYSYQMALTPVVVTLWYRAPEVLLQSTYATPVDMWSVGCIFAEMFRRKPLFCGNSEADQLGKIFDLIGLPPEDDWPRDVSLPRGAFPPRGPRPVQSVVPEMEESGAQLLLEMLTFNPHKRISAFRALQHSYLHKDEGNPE

[9] = system: Epidermal growth factor receptor (Homo sapiens), P00533 [L861Q]; details: Compound concentration 1000.0 nM
[10] = molecular target: Serine/threonine-protein kinase BRSK2 (Homo sapiens) (UniProt Q8IWQ3); details: Compound concentration 1000.0 nM
[11] = molecular target: Serine/threonine-protein kinase SIK2 (Homo sapiens) (UniProt Q9H0K1); details: Compound concentration 1000.0 nM
[12] = system: Tyrosine-protein kinase ABL1 (Homo sapiens), P00519 [T315I]; details: Compound concentration 1000.0 nM
[13] = molecular target: Serine/threonine-protein kinase TAO2 (Homo sapiens) (UniProt Q9UL54); details: Compound concentration 1000.0 nM
[14] = molecular target: Ribosomal protein S6 kinase alpha-1 (Homo sapiens) (UniProt Q15418); details: Compound concentration 1000.0 nM
[15] = molecular target: Serine/threonine-protein kinase DCLK1 (Homo sapiens) (UniProt O15075); details: Compound concentration 1000.0 nM
[16] = molecular target: Mitogen-activated protein kinase 15 (Homo sapiens) (UniProt Q8TD08); details: Compound concentration 1000.0 nM
[17] = molecular target: Calcium/calmodulin-dependent protein kinase type 1B (Homo sapiens) (UniProt Q6P2M8); details: Compound concentration 1000.0 nM
[18] = molecular target: Cyclin-dependent kinase 8 (Homo sapiens) (UniProt P49336); details: Compound concentration 1000.0 nM
[19] = molecular target: TGF-beta receptor type-2 (Homo sapiens) (UniProt P37173); details: Compound concentration 1000.0 nM
[20] = molecular target: Dual specificity mitogen-activated protein kinase kinase 5 (Homo sapiens) (UniProt Q13163); details: Compound concentration 1000.0 nM
[21] = molecular target: Serine/threonine-protein kinase DCLK2 (Homo sapiens) (UniProt Q8N568); details: Compound concentration 1000.0 nM
Sequence of Serine/threonine-protein kinase DCLK2 (Homo sapiens) (Q8N568 whole entry): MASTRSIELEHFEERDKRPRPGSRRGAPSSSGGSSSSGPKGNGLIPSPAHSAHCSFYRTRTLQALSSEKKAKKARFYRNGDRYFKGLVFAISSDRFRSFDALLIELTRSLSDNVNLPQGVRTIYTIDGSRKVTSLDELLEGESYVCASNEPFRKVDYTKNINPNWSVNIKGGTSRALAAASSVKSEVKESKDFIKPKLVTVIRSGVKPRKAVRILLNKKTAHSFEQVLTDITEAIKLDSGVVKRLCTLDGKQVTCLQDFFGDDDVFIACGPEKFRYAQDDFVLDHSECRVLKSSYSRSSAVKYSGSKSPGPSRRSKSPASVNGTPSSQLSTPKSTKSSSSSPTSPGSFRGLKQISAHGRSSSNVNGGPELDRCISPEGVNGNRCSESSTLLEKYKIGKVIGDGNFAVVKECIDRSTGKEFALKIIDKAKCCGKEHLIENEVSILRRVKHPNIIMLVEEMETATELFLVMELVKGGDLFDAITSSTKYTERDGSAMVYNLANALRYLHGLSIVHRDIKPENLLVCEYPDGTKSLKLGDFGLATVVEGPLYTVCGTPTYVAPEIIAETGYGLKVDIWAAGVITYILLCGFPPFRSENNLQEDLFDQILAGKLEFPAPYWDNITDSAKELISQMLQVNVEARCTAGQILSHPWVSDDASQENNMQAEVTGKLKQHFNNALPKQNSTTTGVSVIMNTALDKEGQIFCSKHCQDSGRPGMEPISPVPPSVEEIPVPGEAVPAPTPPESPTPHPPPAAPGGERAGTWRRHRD

[22] = molecular target: 5-hydroxytryptamine receptor 1E (Homo sapiens) (UniProt P28566); details: Compound concentration 10.0 uM
[23] = molecular target: Activin receptor type-2B (Homo sapiens) (UniProt Q13705); details: Compound concentration 1000.0 nM
[24] = system: Tyrosine-protein kinase ABL1 (Homo sapiens), P00519 [H396P]; details: Compound concentration 1000.0 nM
[25] = molecular target: Cyclin-dependent kinase 9 (Homo sapiens) (UniProt P50750); details: Compound concentration 1000.0 nM
Sequence of Cyclin-dependent kinase 9 (Homo sapiens) (P50750 whole entry): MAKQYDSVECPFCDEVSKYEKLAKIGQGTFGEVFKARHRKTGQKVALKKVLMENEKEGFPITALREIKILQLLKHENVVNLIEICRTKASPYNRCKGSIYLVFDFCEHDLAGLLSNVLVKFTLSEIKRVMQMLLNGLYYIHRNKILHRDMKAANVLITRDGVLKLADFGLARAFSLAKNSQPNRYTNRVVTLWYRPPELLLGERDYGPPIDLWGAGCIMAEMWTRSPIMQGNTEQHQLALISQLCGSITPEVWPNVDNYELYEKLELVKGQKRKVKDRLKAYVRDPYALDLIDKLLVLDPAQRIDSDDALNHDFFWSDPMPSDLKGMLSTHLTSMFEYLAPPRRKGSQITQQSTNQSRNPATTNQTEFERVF

[26] = molecular target: Sodium-dependent serotonin transporter (Homo sapiens) (UniProt P31645); details: Compound concentration 10.0 uM
[27] = molecular target: Serine/threonine-protein kinase 32B (Homo sapiens) (UniProt Q9NY57); details: Compound concentration 1000.0 nM
Sequence of Serine/threonine-protein kinase 32B (Homo sapiens) (Q9NY57 whole entry): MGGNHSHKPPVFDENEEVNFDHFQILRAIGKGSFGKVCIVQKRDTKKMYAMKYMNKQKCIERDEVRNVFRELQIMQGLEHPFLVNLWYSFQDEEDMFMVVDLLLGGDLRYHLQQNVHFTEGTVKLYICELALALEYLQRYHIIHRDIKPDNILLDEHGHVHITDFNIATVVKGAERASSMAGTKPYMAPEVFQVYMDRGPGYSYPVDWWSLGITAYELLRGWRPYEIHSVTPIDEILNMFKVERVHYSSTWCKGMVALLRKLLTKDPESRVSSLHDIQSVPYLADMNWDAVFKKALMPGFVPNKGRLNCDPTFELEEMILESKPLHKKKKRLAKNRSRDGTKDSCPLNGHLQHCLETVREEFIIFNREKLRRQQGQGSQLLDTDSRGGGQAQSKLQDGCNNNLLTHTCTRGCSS

[28] = molecular target: Mitogen-activated protein kinase kinase kinase 1 (Homo sapiens) (UniProt Q13233); details: Compound concentration 1000.0 nM
[29] = molecular target: RAC-gamma serine/threonine-protein kinase (Homo sapiens) (UniProt Q9Y243); details: Compound concentration 1000.0 nM
[30] = molecular target: Phosphorylase b kinase regulatory subunit alpha, liver isoform (Homo sapiens) (UniProt P46019); details: Compound concentration 1000.0 nM
[31] = molecular target: Dual specificity mitogen-activated protein kinase kinase 4 (Homo sapiens) (UniProt P45985); details: Compound concentration 1000.0 nM
Sequence of Dual specificity mitogen-activated protein kinase kinase 4 (Homo sapiens) (P45985 whole entry): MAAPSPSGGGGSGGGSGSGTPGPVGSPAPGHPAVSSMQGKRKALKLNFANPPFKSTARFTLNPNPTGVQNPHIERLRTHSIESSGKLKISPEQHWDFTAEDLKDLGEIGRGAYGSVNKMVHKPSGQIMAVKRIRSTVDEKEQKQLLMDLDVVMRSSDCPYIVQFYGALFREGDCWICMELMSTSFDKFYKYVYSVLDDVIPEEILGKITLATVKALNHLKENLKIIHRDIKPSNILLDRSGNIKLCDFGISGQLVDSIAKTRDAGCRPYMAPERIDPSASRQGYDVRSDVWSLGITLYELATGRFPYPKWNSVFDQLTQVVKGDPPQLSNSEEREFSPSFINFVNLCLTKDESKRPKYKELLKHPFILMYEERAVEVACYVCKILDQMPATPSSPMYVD

[32] = molecular target: Serine/threonine-protein kinase Sgk2 (Homo sapiens) (UniProt Q9HBY8); details: Compound concentration 1000.0 nM
[33] = molecular target: Myosin light chain kinase 2, skeletal/cardiac muscle (Homo sapiens) (UniProt Q9H1R3); details: Compound concentration 1000.0 nM
Sequence of Myosin light chain kinase 2, skeletal/cardiac muscle (Homo sapiens) (Q9H1R3 whole entry): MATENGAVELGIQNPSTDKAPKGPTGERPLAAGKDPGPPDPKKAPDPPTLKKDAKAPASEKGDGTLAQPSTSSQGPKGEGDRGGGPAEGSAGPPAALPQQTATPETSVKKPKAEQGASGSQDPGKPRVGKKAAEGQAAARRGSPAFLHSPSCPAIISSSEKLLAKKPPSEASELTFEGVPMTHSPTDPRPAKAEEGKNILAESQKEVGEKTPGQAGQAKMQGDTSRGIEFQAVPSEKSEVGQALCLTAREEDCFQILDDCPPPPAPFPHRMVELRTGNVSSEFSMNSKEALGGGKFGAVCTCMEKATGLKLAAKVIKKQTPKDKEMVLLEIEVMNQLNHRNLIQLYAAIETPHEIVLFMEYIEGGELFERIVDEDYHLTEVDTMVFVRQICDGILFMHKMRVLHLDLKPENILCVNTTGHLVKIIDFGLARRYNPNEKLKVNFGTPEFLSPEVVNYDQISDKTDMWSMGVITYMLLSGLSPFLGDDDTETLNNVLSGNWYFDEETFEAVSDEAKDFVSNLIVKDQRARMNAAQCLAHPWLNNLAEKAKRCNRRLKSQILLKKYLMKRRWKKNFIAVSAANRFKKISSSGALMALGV

[34] = molecular target: Serine/threonine-protein kinase Chk2 (Homo sapiens) (UniProt O96017); details: Compound concentration 1000.0 nM
[35] = molecular target: Mitogen-activated protein kinase kinase kinase 5 (Homo sapiens) (UniProt Q99683); details: Compound concentration 1000.0 nM
[36] = molecular target: Tyrosine-protein kinase TXK (Homo sapiens) (UniProt P42681); details: Compound concentration 1000.0 nM
Sequence of Tyrosine-protein kinase TXK (Homo sapiens) (P42681 whole entry): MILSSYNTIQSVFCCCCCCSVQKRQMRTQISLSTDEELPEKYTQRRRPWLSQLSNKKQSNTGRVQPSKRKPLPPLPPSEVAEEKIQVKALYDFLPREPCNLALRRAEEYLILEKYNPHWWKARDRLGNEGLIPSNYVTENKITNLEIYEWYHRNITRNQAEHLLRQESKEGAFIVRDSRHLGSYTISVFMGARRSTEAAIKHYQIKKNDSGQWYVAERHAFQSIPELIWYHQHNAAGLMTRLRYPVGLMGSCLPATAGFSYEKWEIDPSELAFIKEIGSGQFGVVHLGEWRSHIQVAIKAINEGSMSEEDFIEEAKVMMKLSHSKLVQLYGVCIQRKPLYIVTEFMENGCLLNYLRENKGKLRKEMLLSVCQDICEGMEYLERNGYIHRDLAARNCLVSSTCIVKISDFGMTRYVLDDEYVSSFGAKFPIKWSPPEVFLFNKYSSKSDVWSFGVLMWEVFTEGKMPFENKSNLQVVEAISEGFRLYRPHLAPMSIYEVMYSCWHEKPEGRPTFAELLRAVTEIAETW

[37] = molecular target: Platelet-derived growth factor receptor beta (Homo sapiens) (UniProt P09619); details: Compound concentration 1000.0 nM
[38] = molecular target: Dual specificity mitogen-activated protein kinase kinase 1 (Homo sapiens) (UniProt Q02750); details: Compound concentration 1000.0 nM
[39] = molecular target: Serine/threonine-protein kinase WNK3 (Homo sapiens) (UniProt Q9BYP7); details: Compound concentration 1000.0 nM
[40] = molecular target: Serine/threonine-protein kinase 38-like (Homo sapiens) (UniProt Q9Y2H1); details: Compound concentration 1000.0 nM
Sequence of Serine/threonine-protein kinase 38-like (Homo sapiens) (Q9Y2H1 2-464 limits assumed): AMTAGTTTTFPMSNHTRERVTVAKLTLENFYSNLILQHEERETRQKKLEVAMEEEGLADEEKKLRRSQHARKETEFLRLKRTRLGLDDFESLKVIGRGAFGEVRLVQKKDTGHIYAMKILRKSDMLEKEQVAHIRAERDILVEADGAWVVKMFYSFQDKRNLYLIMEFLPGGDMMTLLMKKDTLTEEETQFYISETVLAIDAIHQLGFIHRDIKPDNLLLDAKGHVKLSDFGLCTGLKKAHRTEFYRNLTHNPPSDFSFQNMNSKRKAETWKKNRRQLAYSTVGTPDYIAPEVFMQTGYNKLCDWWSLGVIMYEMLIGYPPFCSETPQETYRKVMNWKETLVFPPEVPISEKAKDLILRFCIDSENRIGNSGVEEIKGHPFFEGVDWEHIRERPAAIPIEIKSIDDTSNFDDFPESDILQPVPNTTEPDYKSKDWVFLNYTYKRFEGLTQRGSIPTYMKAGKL

[41] = molecular target: Ribosomal protein S6 kinase alpha-5 (Homo sapiens) (UniProt O75582); details: Compound concentration 1000.0 nM
[42] = molecular target: Protein kinase C theta type (Homo sapiens) (UniProt Q04759); details: Compound concentration 1000.0 nM
[43] = molecular target: Platelet-derived growth factor receptor alpha (Homo sapiens) (UniProt P16234); details: Compound concentration 1000.0 nM
Sequence of Platelet-derived growth factor receptor alpha (Homo sapiens) (P16234 whole entry): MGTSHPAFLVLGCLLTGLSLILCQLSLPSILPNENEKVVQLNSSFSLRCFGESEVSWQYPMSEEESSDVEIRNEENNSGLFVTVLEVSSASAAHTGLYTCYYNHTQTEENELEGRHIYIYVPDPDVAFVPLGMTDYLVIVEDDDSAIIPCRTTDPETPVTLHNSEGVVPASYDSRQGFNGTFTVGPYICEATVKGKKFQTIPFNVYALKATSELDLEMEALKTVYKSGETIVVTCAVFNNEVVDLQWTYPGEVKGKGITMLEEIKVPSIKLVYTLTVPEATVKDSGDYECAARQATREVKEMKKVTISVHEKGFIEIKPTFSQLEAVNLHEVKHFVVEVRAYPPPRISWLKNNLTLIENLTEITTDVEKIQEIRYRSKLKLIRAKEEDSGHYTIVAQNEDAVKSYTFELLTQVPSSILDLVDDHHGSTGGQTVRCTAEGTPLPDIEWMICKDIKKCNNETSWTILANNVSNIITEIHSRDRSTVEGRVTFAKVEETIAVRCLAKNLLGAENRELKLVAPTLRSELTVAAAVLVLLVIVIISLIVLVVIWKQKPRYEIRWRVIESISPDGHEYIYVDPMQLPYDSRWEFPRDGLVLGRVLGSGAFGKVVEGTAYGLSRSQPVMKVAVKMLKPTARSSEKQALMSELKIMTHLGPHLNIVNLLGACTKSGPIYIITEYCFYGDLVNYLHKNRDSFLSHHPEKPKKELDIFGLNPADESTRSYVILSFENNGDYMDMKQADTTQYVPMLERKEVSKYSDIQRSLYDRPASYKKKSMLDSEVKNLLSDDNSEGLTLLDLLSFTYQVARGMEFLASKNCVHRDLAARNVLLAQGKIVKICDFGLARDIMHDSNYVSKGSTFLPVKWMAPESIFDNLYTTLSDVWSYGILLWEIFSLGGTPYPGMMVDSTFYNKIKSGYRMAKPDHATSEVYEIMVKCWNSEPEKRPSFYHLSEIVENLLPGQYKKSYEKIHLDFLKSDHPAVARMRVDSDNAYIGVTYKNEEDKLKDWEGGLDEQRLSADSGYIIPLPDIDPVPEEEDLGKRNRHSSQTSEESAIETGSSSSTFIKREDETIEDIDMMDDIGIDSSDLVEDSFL

[44] = molecular target: Rho-associated protein kinase 1 (Homo sapiens) (UniProt Q13464); details: Compound concentration 1000.0 nM
[45] = molecular target: Non-receptor tyrosine-protein kinase TYK2 (Homo sapiens) (UniProt P29597); details: Compound concentration 1000.0 nM

## COc1ccc2c(O[C@@H]3C[C@H]4C(=O)N[C@]5(C(=O)O)CC5/C=C\CCCCC[C@H](NC(=O)OC5CCCC5)C(=O)N4C3)cc(-c3csc(NC(=O)C(C)C)n3)nc2c1C (stereo not given in full) [BI 1230]
[1]
  residual activity: 100%
[2]
  residual activity: 97%
[3]
  residual activity: 100%
[4]
  residual activity: 100%
[5]
  residual activity: 95%
[6]
  residual activity: 95%
[7]
  residual activity: 72%
[8]
  residual activity: 100%
[9]
  residual activity: 100%
[10]
  residual activity: 100%
[11]
  residual activity: 100%
[12]
  residual activity: 92%
[13]
  residual activity: 98%
[14]
  residual activity: 100%
[15]
  residual activity: 76%
[16]
  residual activity: 100%
[17]
  residual activity: 88%
[18]
  residual activity: 68%
[19]
  residual activity: 93%
[20]
  residual activity: 71%
[21]
  residual activity: 95%
[22]
  inhibition: 14.9%
[23]
  residual activity: 100%
[24]
  residual activity: 77%
[25]
  residual activity: 83%
[26]
  inhibition: -8.36%
[27]
  residual activity: 100%
[28]
  residual activity: 82%
[29]
  residual activity: 93%
[30]
  residual activity: 100%
[31]
  residual activity: 100%
[32]
  residual activity: 87%
[33]
  residual activity: 100%
[34]
  residual activity: 94%
[35]
  residual activity: 93%
[36]
  residual activity: 86%
[37]
  residual activity: 94%
[38]
  residual activity: 85%
[39]
  residual activity: 100%
[40]
  residual activity: 43%
[41]
  residual activity: 100%
[42]
  residual activity: 100%
[43]
  residual activity: 84%
[44]
  residual activity: 98%
[45]
  residual activity: 74%

## O=C(N[C@H]1CCCCC/C=C\C2C[C@@]2(C(=O)O)NC(=O)[C@@H]2C[C@@H](Oc3ccncc3)CN2C1=O)OC1CCCC1 (stereo not given in full) [BI 1675]
[1]
  residual activity: 100%
[2]
  residual activity: 100%
[3]
  residual activity: 79%
[4]
  residual activity: 100%
[5]
  residual activity: 100%
[6]
  residual activity: 86%
[7]
  residual activity: 85%
[8]
  residual activity: 100%
[9]
  residual activity: 100%
[10]
  residual activity: 100%
[11]
  residual activity: 100%
[12]
  residual activity: 100%
[13]
  residual activity: 100%
[14]
  residual activity: 82%
[15]
  residual activity: 97%
[16]
  residual activity: 100%
[17]
  residual activity: 99%
[18]
  residual activity: 66%
[19]
  residual activity: 85%
[20]
  residual activity: 89%
[21]
  residual activity: 93%
[22]
  inhibition: 0%
[23]
  residual activity: 100%
[24]
  residual activity: 81%
[25]
  residual activity: 91%
[26]
  inhibition: -6.94%
[27]
  residual activity: 99%
[28]
  residual activity: 84%
[29]
  residual activity: 94%
[30]
  residual activity: 100%
[31]
  residual activity: 73%
[32]
  residual activity: 100%
[33]
  residual activity: 100%
[34]
  residual activity: 100%
[35]
  residual activity: 91%
[36]
  residual activity: 87%
[37]
  residual activity: 87%
[38]
  residual activity: 92%
[39]
  residual activity: 100%
[40]
  residual activity: 80%
[41]
  residual activity: 89%
[42]
  residual activity: 100%
[43]
  residual activity: 99%
[44]
  residual activity: 100%
[45]
  residual activity: 99%

Source: ChEMBL document CHEMBL4507284, “Data for DCP probe BI-1230” (2021)
